Active and inactive are the calls of the source. The calls are words filed in the database; no cut-off is given here.

One assay deals with Bacillus subtilis. Kind of assay: Antibacterial activity against Bacillus subtilis ATCC 6051 at 200 ug/disk by standard disk assay. The assay is classed as functional. Particulars: read-out: IZ.
The next assay concerns Staphylococcus aureus. Kind of assay: Antibacterial activity against Staphylococcus aureus ATCC 29213 at 200 ug/disk by standard disk assay. The assay is classed as functional. As to conditions: read-out: IZ.
Another assay concerns Candida albicans. Kind of assay: Antifungal activity against Candida albicans ATCC 14053 at 200 ug/disk by standard disk assay. The assay is classed as functional, organism-based.
Assay [1] has as its system Helicoverpa zea. Kind of assay: Insecticidal activity against corn ear worm larvae at 400 to 500 ppm relative to control. It is filed as functional.
For the next assay, the system named is Carpophilus. Description: Antiinsectan activity against Carpophilus hemipterus assessed as reduction in feeding rate at 400 to 500 ppm relative to control. The assay is classed as functional. More on the design: scale not given: the % may be the effect or the level left.
The subject of assay [2] is Helicoverpa zea. Kind of assay: Insecticidal activity against corn ear worm larvae at 500 ppm relative to control. It is filed as functional.

As for `Cc1cc(O)c(O)c2oc3cc(O)cc(O)c3c(=O)c12`, the zone of inhibition at 200 µg/disc came out at 12 mm with Bacillus subtilis and 11 mm in the assay on Staphylococcus aureus. Besides, the result with Candida albicans was inactive.
For `COC1=CC(=O)C[C@@H](C)[C@]12Oc1c(Cl)c(OC)cc(OC)c1C2=O` [GRISEOFULVIN], the Activity in the assay with Helicoverpa zea [1] is reported as 70%; in the assay on Carpophilus, 30%.
For `COc1c(-c2ccc(O)c(O)c2)cc(O)c2c1oc1cc(O)c(O)cc12`, the outcome with Candida albicans was inactive.
On to `COc1c(-c2ccc(O)c(O)c2)cc(O)c(-c2ccc(O)c(O)c2)c1O`, for which, in the assay with Helicoverpa zea [2], the Activity is listed as 28%. Further, the zone of inhibition at 200 µg/disc in the assay with Staphylococcus aureus is 13 mm. For the same compound, the result in the assay with Candida albicans was inactive.

The values are drawn from ChEMBL document CHEMBL1150945, “New p-terphenyl and polyketide metabolites from the sclerotia of Penicillium raistrickii” (1998).
